Source: patent US11571467B2, “Dodecafluoropentane emulsion as a stroke and ischemia therapy” (The Board of Trustees of the University of Arkansas, priority 2011, dated 2023)
Read-outs that look alike come from different tables or passages of the source.

How the values were obtained:
[1] = cited from earlier work
[2] = Pharmacokinetic study, DDFP blood levels by headspace GC-MS; assay type: in vivo, New Zealand White rabbits
Procedure: Pharmacokinetic study. In alert New Zealand White rabbits (5.1±0.5 kg; N=8), cannulae were placed in a vein of one ear and in an artery of the other ear. After intravenous injection of DDFPe (0.6 ml/kg in a 2% w/v emulsion) arterial blood samples were taken over a period of 4 to 7 h. The dose of DDFPe was repeated every 90 min in four animals. Samples were stored at −20° C. until they were analyzed for DDFP content by a headspace gas chromatograph-mass spectrometer (Varian TSQ).
Because infarct volumes were not normally distributed, ranks of infarct volume were analyzed with PROC GLM of SAS software (Kruskal-Wallis equivalent). Blood levels of DDFP were analyzed for exponential curve fit and exponential decay time constant using KaleidaGraph software v4.01 (2005). Values are given as mean±standard error.

[3] = in the liquid PFC; cited from earlier work

Row | SMILES | half-life in blood ([1]; humans, previous study) | half-life in the blood ([1]; intravenous administration) | DDFP cleared through the lungs / recovered from expired air ([1]; within 2 hours after single intravenous dose) | half-life ([2]; New Zealand White, rabbit, arterial whole blood, intravenous, FIG. 15, 0.6 ml/kg of 2% w/v emulsion, read-out: half-life in blood, representative rabbit) | clearance ([2]; New Zealand White, rabbit, arterial whole blood, single DDFPe dose of 0.6 ml/kg IV) | half-life ([2]; New Zealand White, rabbit, arterial whole blood, single DDFPe dose of 0.6 ml/kg IV, N=4, read-out: mean half-life in blood) | time for blood level to return to the baseline level after each dose ([2]; multiple doses at 90 min intervals) | time for blood levels to reach non-detectable levels ([2]; single DDFPe dose of 0.6 ml/kg IV) | accumulation in blood ([2]; up to five doses of 0.6 ml/kg at 90 min intervals) | solubility of oxygen [3]
1 | FC(F)(F)C(F)(F)C(F)(F)C(F)(F)C(F)(F)F [DDFP, dodecafluoropentane] | 2.2 ± 1.2 min | 2 min | 99% | 1.68 min | 78.5 ± 24.9 mL/min/kg | 1.45 ± 0.17 min | less than 30 min | ≤ 30 min | no sign of accumulation | 80 % v/v
2 | FC1(F)C(F)(F)C(F)(F)C2(F)C(F)(F)C(F)(F)C(F)(F)C(F)(F)C2(F)C1(F)F (stereo not drawn) [PFD, perfluorodecalin] | – | – | – | – | – | – | – | – | – | 42 % v/v
3 | FC(F)(F)C(F)(F)C(F)(F)C(F)(F)C(F)(F)C(F)(F)C(F)(F)C(F)(F)Br [PFOB, perfluorooctylbromide] | – | – | – | – | – | – | – | – | – | 50 % v/v
